Experimental data taken from patent US6680367B1, “Fluorescent CRF receptor-binding peptides” (Advanced Bioconcept Company, priority 1995, dated 2004).
Peptide text beside a SMILES is read from it. GABA = NCCCC(=O)O

Tests used:
Assay type in all cases: binding
CRF1, CRF2 = assay: Displacement of 125I labeled CRF from CRF receptor subtypes, recombinant cells; settings: Receptor CRF1, CRF2 (one value printed for both), displacing radiolabeled CRF
Description: (§1) Determination of IC50 for labeled peptides. […] In order to fully dissolve the peptide, the sample was reconstituted in 20 uL DMSO, vortexing well to ensure that all powder was completely dissolved, and then adding 0.48 mL of double distilled water. The stock solution was aliquoted to avoid repeated freezing and thawing of peptide. Unused aliquots were stored at −20° C. (protected from light) for maximum 24 hr.
(§2) Data for native and labeled peptides were analyzed by non-linear curve fitting. This included statistical evaluation of fit and calculation of IC50 and Ki values.

CRF1 = target: T1, CRF1 (Homo sapiens, UniProt P34998); assay: Displacement of 125I labeled sauvagine from CRF1, recombinant cells
T1 construct: expressed in transfected cells
T1 sequence (P34998 24-415): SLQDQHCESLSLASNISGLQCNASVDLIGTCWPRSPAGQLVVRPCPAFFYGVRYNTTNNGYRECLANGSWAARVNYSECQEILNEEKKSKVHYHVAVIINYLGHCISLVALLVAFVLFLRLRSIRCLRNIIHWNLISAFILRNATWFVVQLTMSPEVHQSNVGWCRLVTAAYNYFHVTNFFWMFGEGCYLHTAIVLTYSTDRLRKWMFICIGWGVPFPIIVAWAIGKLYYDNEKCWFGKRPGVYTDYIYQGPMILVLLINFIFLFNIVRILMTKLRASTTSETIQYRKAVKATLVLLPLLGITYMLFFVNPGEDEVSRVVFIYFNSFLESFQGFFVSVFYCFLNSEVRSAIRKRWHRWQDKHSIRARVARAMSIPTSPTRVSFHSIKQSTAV
Description: as §1, §2

CRF2 = target: T2, CRF2 (Homo sapiens, UniProt Q13324); assay: Displacement of 125I labeled sauvagine from CRF2, recombinant cells
T2 construct: expressed in transfected cells
T2 sequence (Q13324 1-411): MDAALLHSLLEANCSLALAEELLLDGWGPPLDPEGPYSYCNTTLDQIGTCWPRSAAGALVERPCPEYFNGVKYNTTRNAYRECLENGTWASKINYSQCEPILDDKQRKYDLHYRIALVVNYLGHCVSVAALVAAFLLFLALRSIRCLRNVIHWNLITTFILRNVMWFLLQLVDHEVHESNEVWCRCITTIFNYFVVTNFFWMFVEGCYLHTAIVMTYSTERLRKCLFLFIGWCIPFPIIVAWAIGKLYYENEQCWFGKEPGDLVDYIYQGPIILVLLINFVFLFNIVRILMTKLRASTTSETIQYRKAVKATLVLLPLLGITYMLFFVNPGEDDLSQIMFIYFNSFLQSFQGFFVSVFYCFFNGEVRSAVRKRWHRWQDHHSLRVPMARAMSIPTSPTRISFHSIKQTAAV
Description: as §1, §2

Molecule	Ki (CRF1, CRF2)	Ki (CRF1)	Ki (CRF2)
fluoresceinyl-sauvagine ({Fluorescein-GABA}-GPPISIDLSLELLRKMIEIEKQEKEKQQAANNRLLLDTI-NH2; listed as Xenopus tropicalis) [Fluo*-sauvagine]	3.8 nM	–	–
CC[C@H](C)[C@H](NC(=O)[C@@H](NC(=O)[C@H](CC(=O)O)NC(=O)[C@H](CC(C)C)NC(=O)[C@H](CC(C)C)NC(=O)[C@H](CC(C)C)NC(=O)[C@H](CCCNC(=N)N)NC(=O)[C@H](CC(N)=O)NC(=O)[C@H](CC(N)=O)NC(=O)[C@H](C)NC(=O)[C@H](C)NC(=O)[C@H](CCC(N)=O)NC(=O)[C@H](CCC(N)=O)NC(=O)[C@H](CCCCN)NC(=O)[C@H](CCC(=O)O)NC(=O)[C@H](CCCCN)NC(=O)[C@H](CCC(=O)O)NC(=O)[C@H](CCC(N)=O)NC(=O)[C@H](CCCCN)NC(=O)[C@H](CCC(=O)O)NC(=O)[C@@H](NC(=O)[C@H](CCC(=O)O)NC(=O)[C@@H](NC(=O)[C@H](CCSC)NC(=O)[C@H](CCCCN)NC(=O)[C@H](CCCNC(=N)N)NC(=O)[C@H](CC(C)C)NC(=O)[C@H](CC(C)C)NC(=O)[C@H](CCC(=O)O)NC(=O)[C@H](CC(C)C)NC(=O)[C@H](CO)NC(=O)[C@H](CC(C)C)NC(=O)[C@H](CC(=O)O)NC(=O)[C@@H](NC(=O)[C@H](CO)NC(=O)[C@@H](NC(=O)[C@@H]1CCCN1C(=O)[C@@H]1CCCN1C(=O)CNC(=O)[C@@H]1CCC(=O)N1)[C@@H](C)CC)[C@@H](C)CC)[C@@H](C)CC)[C@@H](C)CC)[C@@H](C)O)C(N)=O [Sauvagine, sauvagine]	7.9 nM	–	–
CC[C@H](C)[C@H](NC(=O)[C@H](CO)NC(=O)[C@H](CC(C)C)NC(=O)[C@H](CO)NC(=O)[C@@H]1CCCN1C(=O)[C@H](CC(N)=O)NC(=O)[C@@H](N)CC(=O)O)C(=O)N[C@@H](CC(=O)O)C(=O)N[C@@H](CC(C)C)C(=O)N[C@H](C(=O)N[C@@H](Cc1ccccc1)C(=O)N[C@@H](Cc1cnc[nH]1)C(=O)N[C@@H](CC(C)C)C(=O)N[C@@H](CC(C)C)C(=O)N[C@@H](CCCNC(=N)N)C(=O)N[C@H](C(=O)N[C@@H](CC(C)C)C(=O)N[C@@H](CC(C)C)C(=O)N[C@@H](CCC(=O)O)C(=O)N[C@@H](CC(C)C)C(=O)N[C@@H](C)C(=O)N[C@@H](CCCNC(=N)N)C(=O)N[C@H](C(=O)N[C@@H](CCC(N)=O)C(=O)N[C@@H](CO)C(=O)N[C@@H](CCC(N)=O)C(=O)N[C@@H](CCCNC(=N)N)C(=O)N[C@@H](CCC(=O)O)C(=O)N[C@@H](CCCNC(=N)N)C(=O)N[C@@H](C)C(=O)N[C@@H](CCC(=O)O)C(=O)N[C@@H](CCC(N)=O)C(=O)N[C@@H](CC(N)=O)C(=O)N[C@@H](CCCNC(=N)N)C(=O)N[C@H](C(=O)N[C@H](C(=O)N[C@@H](Cc1ccccc1)C(=O)N[C@@H](CC(=O)O)C(=O)N[C@@H](CO)C(=O)N[C@H](C(N)=O)C(C)C)[C@@H](C)CC)[C@@H](C)CC)[C@@H](C)O)[C@@H](C)O)[C@@H](C)O [urocortin] (H-DNPSLSIDLTFHLLRTLLELARTQSQRERAEQNRIIFDSV-NH2)	–	0.64 nM	4.3 nM
